According to the kinase profiling compilation of Christmann-Franck et al. (2016):

How the values were obtained:
Test in all cases: radiometric filter-binding kinase assay, Kinase HotSpot
Conditions in all cases: compound 0.5 µM; ATP 10 µM
BRSK2 (human) = BRSK2 (human) (UniProt Q8IWQ3)
CAMK1G (human) = CAMK1G (human) (UniProt Q96NX5)
CDK5 CDK5R1 p35 (human) = CDK5 CDK5R1 p35 (human) (UniProt Q00535+Q15078)
CDK6 CCND1 (human) = CDK6 CCND1 (human) (UniProt Q00534+P24385)
CSNK1D (human) = CSNK1D (human) (UniProt P48730)
CSNK1E (human) = CSNK1E (human) (UniProt P49674)
CSNK1G3 (human) = CSNK1G3 (human) (UniProt Q9Y6M4)
DCLK2 (human) = DCLK2 (human) (UniProt Q8N568)
DMPK (human) = DMPK (human) (UniProt Q09013)
DYRK1B (human) = DYRK1B (human) (UniProt Q9Y463)
DYRK4 (human) = DYRK4 (human) (UniProt Q9NR20)
EPHB2 (human) = EPHB2 (human) (UniProt P29323)
EPHB4 (human) = EPHB4 (human) (UniProt P54760)
FGFR1 (human) = FGFR1 (human) (UniProt P11362)
FGFR2 (human) = FGFR2 (human) (UniProt P21802)
GSG2 (human) = GSG2 (human) (UniProt Q8TF76)
GSK3B (human) = GSK3B (human) (UniProt P49841)
IRAK1 (human) = IRAK1 (human) (UniProt P51617)
[1] = molecular target: JAK1 JH1 catalytic (human) (UniProt P23458)
MAP3K9 (human) = MAP3K9 (human) (UniProt P80192)
MAPK8 (human) = MAPK8 (human) (UniProt P45983)
MARK2 (human) = MARK2 (human) (UniProt Q7KZI7)
MATK (human) = MATK (human) (UniProt P42679)
MERTK (human) = MERTK (human) (UniProt Q12866)
MST1R (human) = MST1R (human) (UniProt Q04912)
MUSK (human) = MUSK (human) (UniProt O15146)
NEK2 (human) = NEK2 (human) (UniProt P51955)
NEK6 (human) = NEK6 (human) (UniProt Q9HC98)
NTRK1 (human) = NTRK1 (human) (UniProt P04629)
NTRK3 (human) = NTRK3 (human) (UniProt Q16288)
NUAK2 (human) = NUAK2 (human) (UniProt Q9H093)
PASK (human) = PASK (human) (UniProt Q96RG2)
PHKG2 (human) = PHKG2 (human) (UniProt P15735)
PIM2 (human) = PIM2 (human) (UniProt Q9P1W9)
PLK2 (human) = PLK2 (human) (UniProt Q9NYY3)
PLK3 (human) = PLK3 (human) (UniProt Q9H4B4)
PTK2B (human) = PTK2B (human) (UniProt Q14289)
SLK (human) = SLK (human) (UniProt Q9H2G2)
STK17A (human) = STK17A (human) (UniProt Q9UEE5)
STK25 (human) = STK25 (human) (UniProt O00506)
TYRO3 (human) = TYRO3 (human) (UniProt Q06418)
WNK2 (human) = WNK2 (human) (UniProt Q9Y3S1)

CSNK1E (human), sequence (P49674 whole entry, looked up): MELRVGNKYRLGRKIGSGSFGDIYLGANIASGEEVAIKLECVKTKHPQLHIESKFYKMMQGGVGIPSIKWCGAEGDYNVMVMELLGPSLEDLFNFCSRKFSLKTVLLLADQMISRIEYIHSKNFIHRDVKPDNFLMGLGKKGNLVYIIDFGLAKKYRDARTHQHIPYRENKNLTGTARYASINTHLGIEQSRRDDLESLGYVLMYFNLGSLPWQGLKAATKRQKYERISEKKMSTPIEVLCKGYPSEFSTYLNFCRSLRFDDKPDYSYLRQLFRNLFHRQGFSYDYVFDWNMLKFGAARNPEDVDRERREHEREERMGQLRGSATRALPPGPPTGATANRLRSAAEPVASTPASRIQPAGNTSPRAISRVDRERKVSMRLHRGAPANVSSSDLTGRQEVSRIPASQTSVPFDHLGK
PASK (human), sequence (Q96RG2 whole entry, looked up): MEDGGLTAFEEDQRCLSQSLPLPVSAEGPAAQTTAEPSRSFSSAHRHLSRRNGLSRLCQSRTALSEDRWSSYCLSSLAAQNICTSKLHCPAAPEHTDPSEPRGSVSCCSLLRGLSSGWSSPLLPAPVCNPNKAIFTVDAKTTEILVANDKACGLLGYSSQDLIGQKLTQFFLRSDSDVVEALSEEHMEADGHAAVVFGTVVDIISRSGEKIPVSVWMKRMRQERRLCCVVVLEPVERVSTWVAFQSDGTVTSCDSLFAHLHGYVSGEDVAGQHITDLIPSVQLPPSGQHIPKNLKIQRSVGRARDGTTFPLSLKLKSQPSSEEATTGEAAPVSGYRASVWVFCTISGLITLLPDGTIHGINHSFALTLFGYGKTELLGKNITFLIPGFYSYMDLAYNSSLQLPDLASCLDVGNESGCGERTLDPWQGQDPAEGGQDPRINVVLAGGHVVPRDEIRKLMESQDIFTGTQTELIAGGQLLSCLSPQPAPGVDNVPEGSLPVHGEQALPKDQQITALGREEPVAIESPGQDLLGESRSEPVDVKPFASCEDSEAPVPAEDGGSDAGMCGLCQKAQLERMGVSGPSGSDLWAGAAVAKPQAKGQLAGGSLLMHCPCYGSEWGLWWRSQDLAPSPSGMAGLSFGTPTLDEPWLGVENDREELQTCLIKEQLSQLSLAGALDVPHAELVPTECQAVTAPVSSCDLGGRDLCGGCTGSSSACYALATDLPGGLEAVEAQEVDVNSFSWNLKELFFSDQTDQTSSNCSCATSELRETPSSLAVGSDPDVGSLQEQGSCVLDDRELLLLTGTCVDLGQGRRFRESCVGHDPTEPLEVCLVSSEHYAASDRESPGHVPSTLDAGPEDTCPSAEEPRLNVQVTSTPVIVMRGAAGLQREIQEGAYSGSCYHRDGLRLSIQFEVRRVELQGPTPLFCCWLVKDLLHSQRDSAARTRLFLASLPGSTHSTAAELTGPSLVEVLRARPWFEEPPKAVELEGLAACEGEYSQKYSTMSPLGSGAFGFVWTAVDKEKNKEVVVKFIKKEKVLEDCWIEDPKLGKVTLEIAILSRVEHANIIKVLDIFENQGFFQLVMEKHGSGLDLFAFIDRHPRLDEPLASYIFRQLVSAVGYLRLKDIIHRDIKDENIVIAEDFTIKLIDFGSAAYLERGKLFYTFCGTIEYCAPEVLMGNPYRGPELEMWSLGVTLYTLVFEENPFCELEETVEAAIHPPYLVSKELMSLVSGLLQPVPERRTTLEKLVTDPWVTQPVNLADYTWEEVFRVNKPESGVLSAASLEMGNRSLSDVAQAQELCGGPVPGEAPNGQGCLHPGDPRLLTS
IRAK1 (human), sequence (P51617 whole entry, looked up): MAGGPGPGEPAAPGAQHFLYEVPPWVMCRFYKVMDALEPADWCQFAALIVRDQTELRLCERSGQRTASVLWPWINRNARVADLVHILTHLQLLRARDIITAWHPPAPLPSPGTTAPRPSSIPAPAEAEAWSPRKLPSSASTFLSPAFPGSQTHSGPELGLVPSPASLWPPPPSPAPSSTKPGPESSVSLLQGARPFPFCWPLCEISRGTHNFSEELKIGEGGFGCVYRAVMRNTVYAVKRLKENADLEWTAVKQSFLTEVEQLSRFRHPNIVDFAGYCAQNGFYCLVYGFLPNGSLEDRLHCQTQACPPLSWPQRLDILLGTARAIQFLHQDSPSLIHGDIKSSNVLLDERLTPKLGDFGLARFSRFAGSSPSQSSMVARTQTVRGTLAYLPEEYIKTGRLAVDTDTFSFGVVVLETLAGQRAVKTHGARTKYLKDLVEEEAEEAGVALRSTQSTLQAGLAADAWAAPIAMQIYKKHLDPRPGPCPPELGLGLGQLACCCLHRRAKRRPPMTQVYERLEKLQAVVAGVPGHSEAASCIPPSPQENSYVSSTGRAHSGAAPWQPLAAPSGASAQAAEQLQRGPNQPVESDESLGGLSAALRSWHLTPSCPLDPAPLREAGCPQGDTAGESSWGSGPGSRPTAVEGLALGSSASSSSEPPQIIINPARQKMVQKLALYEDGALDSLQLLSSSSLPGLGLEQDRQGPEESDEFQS
PHKG2 (human), sequence (P15735 whole entry, looked up): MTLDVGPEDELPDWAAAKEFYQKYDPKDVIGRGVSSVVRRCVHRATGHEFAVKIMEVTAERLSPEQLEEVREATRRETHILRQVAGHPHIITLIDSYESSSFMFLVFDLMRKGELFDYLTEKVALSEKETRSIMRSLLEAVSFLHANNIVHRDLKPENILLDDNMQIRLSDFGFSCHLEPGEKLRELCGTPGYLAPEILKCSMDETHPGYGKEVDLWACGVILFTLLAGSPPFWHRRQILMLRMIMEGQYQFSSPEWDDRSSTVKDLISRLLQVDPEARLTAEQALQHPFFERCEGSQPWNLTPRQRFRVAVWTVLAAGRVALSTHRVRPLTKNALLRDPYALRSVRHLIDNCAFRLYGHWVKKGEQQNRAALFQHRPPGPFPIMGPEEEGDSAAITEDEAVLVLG
GSG2 (human), sequence (Q8TF76 whole entry, looked up): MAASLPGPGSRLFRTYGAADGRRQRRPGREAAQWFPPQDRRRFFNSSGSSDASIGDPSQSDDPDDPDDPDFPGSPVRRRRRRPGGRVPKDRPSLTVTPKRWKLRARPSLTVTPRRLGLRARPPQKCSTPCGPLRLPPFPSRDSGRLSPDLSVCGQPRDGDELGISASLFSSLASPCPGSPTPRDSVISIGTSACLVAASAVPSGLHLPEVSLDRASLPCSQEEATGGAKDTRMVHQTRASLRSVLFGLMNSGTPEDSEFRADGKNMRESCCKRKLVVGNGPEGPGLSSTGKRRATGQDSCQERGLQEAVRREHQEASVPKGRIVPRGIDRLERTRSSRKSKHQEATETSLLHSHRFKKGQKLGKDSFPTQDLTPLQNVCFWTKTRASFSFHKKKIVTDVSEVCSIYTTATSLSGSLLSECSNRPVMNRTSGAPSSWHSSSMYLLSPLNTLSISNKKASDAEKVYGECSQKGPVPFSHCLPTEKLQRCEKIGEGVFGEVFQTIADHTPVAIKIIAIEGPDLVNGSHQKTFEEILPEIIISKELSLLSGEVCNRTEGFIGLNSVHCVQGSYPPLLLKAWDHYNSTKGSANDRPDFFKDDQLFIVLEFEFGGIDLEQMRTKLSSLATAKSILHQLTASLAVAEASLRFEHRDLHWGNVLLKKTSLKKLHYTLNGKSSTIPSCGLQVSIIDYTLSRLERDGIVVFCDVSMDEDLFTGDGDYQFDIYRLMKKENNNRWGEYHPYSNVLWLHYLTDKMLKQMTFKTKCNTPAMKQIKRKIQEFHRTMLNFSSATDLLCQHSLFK
MARK2 (human), sequence (Q7KZI7 whole entry, looked up): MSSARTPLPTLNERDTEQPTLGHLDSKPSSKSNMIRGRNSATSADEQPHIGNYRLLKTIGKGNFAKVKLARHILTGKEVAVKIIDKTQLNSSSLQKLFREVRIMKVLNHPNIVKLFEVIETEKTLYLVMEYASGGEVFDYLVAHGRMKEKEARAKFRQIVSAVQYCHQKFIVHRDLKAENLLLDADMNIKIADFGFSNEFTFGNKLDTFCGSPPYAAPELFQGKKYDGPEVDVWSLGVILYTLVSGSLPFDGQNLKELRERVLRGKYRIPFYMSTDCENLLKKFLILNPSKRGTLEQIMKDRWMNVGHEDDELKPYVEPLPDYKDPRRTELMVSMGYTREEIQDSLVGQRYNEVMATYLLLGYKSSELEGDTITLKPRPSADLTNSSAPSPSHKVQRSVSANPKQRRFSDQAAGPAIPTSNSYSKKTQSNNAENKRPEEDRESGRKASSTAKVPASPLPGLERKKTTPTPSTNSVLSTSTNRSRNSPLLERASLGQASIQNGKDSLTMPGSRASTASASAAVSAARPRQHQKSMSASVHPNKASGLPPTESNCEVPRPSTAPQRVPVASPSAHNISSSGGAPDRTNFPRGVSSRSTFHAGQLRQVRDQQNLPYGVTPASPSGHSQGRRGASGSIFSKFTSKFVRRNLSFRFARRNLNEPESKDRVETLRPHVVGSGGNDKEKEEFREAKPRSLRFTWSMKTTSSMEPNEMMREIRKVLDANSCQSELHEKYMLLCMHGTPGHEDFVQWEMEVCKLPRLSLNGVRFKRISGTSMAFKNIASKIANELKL
STK17A (human), sequence (Q9UEE5 whole entry, looked up): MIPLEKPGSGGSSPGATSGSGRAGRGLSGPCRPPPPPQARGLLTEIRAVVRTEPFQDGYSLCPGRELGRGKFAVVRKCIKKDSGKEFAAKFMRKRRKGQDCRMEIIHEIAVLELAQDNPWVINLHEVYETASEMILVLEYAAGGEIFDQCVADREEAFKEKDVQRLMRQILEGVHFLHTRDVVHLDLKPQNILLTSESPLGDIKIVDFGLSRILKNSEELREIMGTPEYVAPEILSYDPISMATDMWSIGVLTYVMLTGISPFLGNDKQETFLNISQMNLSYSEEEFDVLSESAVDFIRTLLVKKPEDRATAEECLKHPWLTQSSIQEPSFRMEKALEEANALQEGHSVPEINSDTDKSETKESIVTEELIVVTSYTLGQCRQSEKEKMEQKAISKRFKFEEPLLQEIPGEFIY

## O=c1cc(-c2cccc3c2Sc2ccccc2S3)oc(N2CCOCC2)c1
BRSK2 (human)
  residual activity: 101%
CAMK1G (human)
  residual activity: 99.4%
CDK5 CDK5R1 p35 (human)
  residual activity: 99.5%
CDK6 CCND1 (human)
  residual activity: 98.1%
CSNK1D (human)
  residual activity: 106%
CSNK1E (human)
  residual activity: 104%
CSNK1G3 (human)
  residual activity: 87.9%
DCLK2 (human)
  residual activity: 106%
DMPK (human)
  residual activity: 94.8%
DYRK1B (human)
  residual activity: 101%
DYRK4 (human)
  residual activity: 105%
EPHB2 (human)
  residual activity: 102%
EPHB4 (human)
  residual activity: 94.3%
FGFR1 (human)
  residual activity: 99.2%
FGFR2 (human)
  residual activity: 98.7%
GSG2 (human)
  residual activity: 106%
GSK3B (human)
  residual activity: 98.7%
IRAK1 (human)
  residual activity: 103%
[1]
  residual activity: 105%
MAP3K9 (human)
  residual activity: 95.5%
MAPK8 (human)
  residual activity: 84%
MARK2 (human)
  residual activity: 86.3%
MATK (human)
  residual activity: 102%
MERTK (human)
  residual activity: 97%
MST1R (human)
  residual activity: 111%
MUSK (human)
  residual activity: 89.1%
NEK2 (human)
  residual activity: 103%
NEK6 (human)
  residual activity: 103%
NTRK1 (human)
  residual activity: 99.4%
NTRK3 (human)
  residual activity: 99.7%
NUAK2 (human)
  residual activity: 109%
PASK (human)
  residual activity: 101%
PHKG2 (human)
  residual activity: 98.6%
PIM2 (human)
  residual activity: 118%
PLK2 (human)
  residual activity: 84.6%
PLK3 (human)
  residual activity: 98.1%
PTK2B (human)
  residual activity: 106%
SLK (human)
  residual activity: 93.5%
STK17A (human)
  residual activity: 98.2%
STK25 (human)
  residual activity: 99.6%
TYRO3 (human)
  residual activity: 105%
WNK2 (human)
  residual activity: 116%
